Results on 29 compounds are retold here after patent publication US5604234A, “Substituted thiol macrolactam immunomodulators” (Abbott Laboratories, priority 1995, dated 1997).

Experiment [1] deals with human mixed lymphocyte reaction (MLR). Put plainly: human mixed lymphocyte reaction (MLR) assay, immunosuppressant activity. As to conditions: Table 2. Format: cell-based. Here is the method: The immunosuppressant activity of the compounds of the present invention was determined using the human mixed lymphocyte reaction (MLR) assay described by Kino, T. et al. in Transplantation Proceedings, XIX(5):36-39,Suppl. 6 (1987).

For experiment [2] the test system is unchanged. Put plainly: human mixed lymphocyte reaction (MLR), serum free variation. Type of experiment: cell-based. As to conditions: Lymphocyte, serum-free medium AIM V, Table 3. Put shortly: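 Serum-free variant of the human MLR: cultured in AIM V medium in place of RPMI 1640 with 10% heat-inactivated FBS. Responder and stimulator PBMCs, pooled from four donors, at final 5×10^5/mL and 2×10^6/mL respectively.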

In general, IC50 refers to the midpoint of a concentration-inhibition curve. Read a high IC50 as a need for much substance. In experiment [1] (Homo sapiens, Lymphocyte), `CC[C@@H]1/C=C(\C)C[C@H](C)C[C@H](OC)[C@H]2O[C@@](O)(C(=O)C(=O)N3CCCC[C@H]3C(=O)O[C@H](/C(C)=C/[C@@H]3CC[C@H]([S+](C)[O-])[C@H](OC)C3)[C@H](C)[C@@H](O)CC1=O)[C@H](C)C[C@@H]2OC` (single isomer, unassigned) [Example 127] returned an IC50 of 12.5 nM.

As to `CC[C@@H]1/C=C(\C)C[C@H](C)C[C@H](OC)[C@H]2O[C@@](O)(C(=O)C(=O)N3CCCC[C@H]3C(=O)O[C@H](/C(C)=C/[C@@H]3CC[C@H]([S+]([O-])c4ccccc4)[C@H](OC)C3)[C@H](C)[C@@H](O)CC1=O)[C@H](C)C[C@@H]2OC` (single isomer, unassigned) [Example 133A], the midpoint of inhibition in experiment [1] (Homo sapiens, Lymphocyte), the IC50, lay at 6.2 nM.

`CC[C@@H]1/C=C(\C)C[C@H](C)C[C@H](OC)[C@H]2O[C@@](O)(C(=O)C(=O)N3CCCC[C@H]3C(=O)O[C@H](/C(C)=C/[C@@H]3CC[C@H]([S+]([O-])c4ccccc4)[C@H](OC)C3)[C@H](C)[C@@H](O)CC1=O)[C@H](C)C[C@@H]2OC` (single isomer, unassigned) [Example 133B]: in experiment [1], the IC50 is 6.5 nM.

The compound `CCC1C=C(C)CC(C)CC(OC)C2OC(O)(C(=O)C(=O)N3CCCCC3C(=O)OC(C(C)=CC3CCC(SCCC(=O)OCc4ccccc4)C(OC)C3)C(C)C(O)CC1=O)C(C)CC2OC` (centres unmarked) [Example 18] gave an IC50 in experiment [1] (Homo sapiens, Lymphocyte) of 18.5 nM.

Regarding `CC[C@@H]1/C=C(\C)C[C@H](C)C[C@H](OC)[C@H]2O[C@@](O)(C(=O)C(=O)N3CCCC[C@H]3C(=O)O[C@H](/C(C)=C/[C@@H]3CC[C@H](SC)[C@H](OC)C3)[C@H](C)[C@@H](O)CC1=O)[C@H](C)C[C@@H]2OC` [Example 90], the midpoint of inhibition in experiment [1] (Homo sapiens, Lymphocyte), the IC50, lay at 0.75 nM.

`CC[C@@H]1/C=C(\C)C[C@H](C)C[C@H](OC)[C@H]2O[C@@](O)(C(=O)C(=O)N3CCCC[C@H]3C(=O)O[C@H](/C(C)=C/[C@@H]3CC[C@H](SC(=O)NCC(=O)OCc4ccc(OC)cc4)[C@H](OC)C3)[C@H](C)[C@@H](O)CC1=O)[C@H](C)C[C@@H]2OC` [Example 99] gave a concentration for half-maximal inhibition (IC50) in experiment [2] (Homo sapiens) of 8.7 nM.

As for `CC[C@@H]1/C=C(\C)C[C@H](C)C[C@H](OC)[C@H]2O[C@@](O)(C(=O)C(=O)N3CCCC[C@H]3C(=O)O[C@H](/C(C)=C/[C@@H]3CC[C@H](SC(=O)NCC(=O)OCC[Si](C)(C)C)[C@H](OC)C3)[C@H](C)[C@@H](O)CC1=O)[C@H](C)C[C@@H]2OC` [Example 100], in experiment [2], the IC50 worked out at 5.8 nM.

Regarding `CC[C@@H]1/C=C(\C)C[C@H](C)C[C@H](OC)[C@H]2O[C@@](O)(C(=O)C(=O)N3CCCC[C@H]3C(=O)O[C@H](/C(C)=C/[C@@H]3CC[C@H](SC(=O)NCC(=O)N4CCOCC4)[C@H](OC)C3)[C@H](C)[C@@H](O)CC1=O)[C@H](C)C[C@@H]2OC` [Example 101], the half-inhibitory concentration (IC50) in experiment [2] (Homo sapiens) was found to be 1.1 nM.

Turning to `CC[C@@H]1/C=C(\C)C[C@H](C)C[C@H](OC)[C@H]2O[C@@](O)(C(=O)C(=O)N3CCCC[C@H]3C(=O)O[C@H](/C(C)=C/[C@@H]3CC[C@H](SC(=O)NCC(=O)N4CCCCC4)[C@H](OC)C3)[C@H](C)[C@@H](O)CC1=O)[C@H](C)C[C@@H]2OC` [Example 102], in experiment [2] (Homo sapiens), the concentration for half-maximal inhibition (IC50) was determined as 2 nM.

The compound `CCOC(CNC(=O)S[C@H]1CC[C@@H](/C=C(\C)[C@H]2OC(=O)[C@@H]3CCCCN3C(=O)C(=O)[C@]3(O)O[C@H]([C@@H](OC)C[C@@H](C)C/C(C)=C/[C@@H](CC)C(=O)C[C@H](O)[C@H]2C)[C@@H](OC)C[C@H]3C)C[C@H]1OC)OCC` [Example 104] gave an IC50 in experiment [2] (Homo sapiens) of 2.5 nM.

`CC[C@@H]1/C=C(\C)C[C@H](C)C[C@H](OC)[C@H]2O[C@@](O)(C(=O)C(=O)N3CCCC[C@H]3C(=O)O[C@H](/C(C)=C/[C@@H]3CC[C@H](SC(=O)C(=O)OC)[C@H](OC)C3)[C@H](C)[C@@H](O)CC1=O)[C@H](C)C[C@@H]2OC` [Example 111] registered a half-maximal inhibitory concentration (IC50) in experiment [2] (Homo sapiens) of 4.1 nM.

For `CC[C@@H]1/C=C(\C)C[C@H](C)C[C@H](OC)[C@H]2O[C@@](O)(C(=O)C(=O)N3CCCC[C@H]3C(=O)O[C@H](/C(C)=C/[C@@H]3CC[C@H](SC(=O)c4ccccc4OC(C)=O)[C@H](OC)C3)[C@H](C)[C@@H](O)CC1=O)[C@H](C)C[C@@H]2OC` [Example 112], the IC50 in experiment [2] (Homo sapiens) is 0.49 nM.

The compound `CC[C@@H]1/C=C(\C)C[C@H](C)C[C@H](OC)[C@H]2O[C@@](O)(C(=O)C(=O)N3CCCC[C@H]3C(=O)O[C@H](/C(C)=C/[C@@H]3CC[C@H](SC(=O)c4cccnc4)[C@H](OC)C3)[C@H](C)[C@@H](O)CC1=O)[C@H](C)C[C@@H]2OC` [Example 113] registered an IC50 in experiment [2] (Homo sapiens) of 0.15 nM.

`CC[C@@H]1/C=C(\C)C[C@H](C)C[C@H](OC)[C@H]2O[C@@](O)(C(=O)C(=O)N3CCCC[C@H]3C(=O)O[C@H](/C(C)=C/[C@@H]3CC[C@H](SC(=O)c4ccncc4)[C@H](OC)C3)[C@H](C)[C@@H](O)CC1=O)[C@H](C)C[C@@H]2OC` [Example 114] returned an IC50 in experiment [2] (Homo sapiens) of 0.14 nM.

Consider `CC[C@@H]1/C=C(\C)C[C@H](C)C[C@H](OC)[C@H]2O[C@@](O)(C(=O)C(=O)N3CCCC[C@H]3C(=O)O[C@H](/C(C)=C/[C@@H]3CC[C@H](SC(=O)CNC(C)=O)[C@H](OC)C3)[C@H](C)[C@@H](O)CC1=O)[C@H](C)C[C@@H]2OC` [Example 115], for which the IC50 in experiment [2] (Homo sapiens) worked out at 0.02 nM.

As to `CC[C@@H]1/C=C(\C)C[C@H](C)C[C@H](OC)[C@H]2O[C@@](O)(C(=O)C(=O)N3CCCC[C@H]3C(=O)O[C@H](/C(C)=C/[C@@H]3CC[C@H](SC(=O)CCNC(C)=O)[C@H](OC)C3)[C@H](C)[C@@H](O)CC1=O)[C@H](C)C[C@@H]2OC` [Example 116], the concentration for half-maximal inhibition (IC50) in experiment [2] (Homo sapiens) turned out to be 3.1 nM.

Take `CC[C@@H]1/C=C(\C)C[C@H](C)C[C@H](OC)[C@H]2O[C@@](O)(C(=O)C(=O)N3CCCC[C@H]3C(=O)O[C@H](/C(C)=C/[C@@H]3CC[C@H](SC(=O)c4ccccc4NC(C)=O)[C@H](OC)C3)[C@H](C)[C@@H](O)CC1=O)[C@H](C)C[C@@H]2OC` [Example 118]: the IC50 in experiment [2] (Homo sapiens) amounted to 2.5 nM.

Consider `CC[C@@H]1/C=C(\C)C[C@H](C)C[C@H](OC)[C@H]2O[C@@](O)(C(=O)C(=O)N3CCCC[C@H]3C(=O)O[C@H](/C(C)=C/[C@@H]3CC[C@H](SC(=O)c4ccccc4C#N)[C@H](OC)C3)[C@H](C)[C@@H](O)CC1=O)[C@H](C)C[C@@H]2OC` [Example 119], for which the IC50 in experiment [2] (Homo sapiens) turned out to be 3 nM.

The compound `CC[C@@H]1/C=C(\C)C[C@H](C)C[C@H](OC)[C@H]2O[C@@](O)(C(=O)C(=O)N3CCCC[C@H]3C(=O)O[C@H](/C(C)=C/[C@@H]3CC[C@H](SC(=O)c4ccccn4)[C@H](OC)C3)[C@H](C)[C@@H](O)CC1=O)[C@H](C)C[C@@H]2OC` [Example 120] showed an IC50 in experiment [2] (Homo sapiens) of 1.2 nM.

`CC[C@@H]1/C=C(\C)C[C@H](C)C[C@H](OC)[C@H]2O[C@@](O)(C(=O)C(=O)N3CCCC[C@H]3C(=O)O[C@H](/C(C)=C/[C@@H]3CC[C@H](SC(=O)CNC(N)=O)[C@H](OC)C3)[C@H](C)[C@@H](O)CC1=O)[C@H](C)C[C@@H]2OC` [Example 121] returned a concentration for half-maximal inhibition (IC50) in experiment [2] (Homo sapiens) of 2.6 nM.

With `CC[C@@H]1/C=C(\C)C[C@H](C)C[C@H](OC)[C@H]2O[C@@](O)(C(=O)C(=O)N3CCCC[C@H]3C(=O)O[C@H](/C(C)=C/[C@@H]3CC[C@H](SC(=O)[C@@H](NC(C)=O)[C@@H](C)O)[C@H](OC)C3)[C@H](C)[C@@H](O)CC1=O)[C@H](C)C[C@@H]2OC` [Example 122], in experiment [2] (Homo sapiens), the half-maximal inhibitory concentration (IC50) worked out at 1.5 nM.

In turn, `CC[C@@H]1/C=C(\C)C[C@H](C)C[C@H](OC)[C@H]2O[C@@](O)(C(=O)C(=O)N3CCCC[C@H]3C(=O)O[C@H](/C(C)=C/[C@@H]3CC[C@H](SC(=O)[C@H](C)O)[C@H](OC)C3)[C@H](C)[C@@H](O)CC1=O)[C@H](C)C[C@@H]2OC` [Example 123] yielded an IC50 in experiment [2] (Homo sapiens) of 2.8 nM.

For `CC[C@@H]1/C=C(\C)C[C@H](C)C[C@H](OC)[C@H]2O[C@@](O)(C(=O)C(=O)N3CCCC[C@H]3C(=O)O[C@H](/C(C)=C/[C@@H]3CC[C@H](SC(=O)[C@@H](C)O)[C@H](OC)C3)[C@H](C)[C@@H](O)CC1=O)[C@H](C)C[C@@H]2OC` [Example 124], in experiment [2] (Homo sapiens), the IC50 came out at 2 nM.

In turn, `CC[C@@H]1/C=C(\C)C[C@H](C)C[C@H](OC)[C@H]2O[C@@](O)(C(=O)C(=O)N3CCCC[C@H]3C(=O)O[C@H](/C(C)=C/[C@@H]3CC[C@H](SC(=O)CO)[C@H](OC)C3)[C@H](C)[C@@H](O)CC1=O)[C@H](C)C[C@@H]2OC` [Example 125] displayed an IC50 in experiment [2] (Homo sapiens) of 3.5 nM.

Consider `CC[C@@H]1/C=C(\C)C[C@H](C)C[C@H](OC)[C@H]2O[C@@](O)(C(=O)C(=O)N3CCCC[C@H]3C(=O)O[C@H](/C(C)=C/[C@@H]3CC[C@H]([S+](C)[O-])[C@H](OC)C3)[C@H](C)[C@@H](O)CC1=O)[C@H](C)C[C@@H]2OC` (some centres unmarked) [Example 128], for which, in experiment [1] (Homo sapiens, Lymphocyte), the IC50 came to 15.5 nM.

As to `CC[C@@H]1/C=C(\C)C[C@H](C)C[C@H](OC)[C@H]2O[C@@](O)(C(=O)C(=O)N3CCCC[C@H]3C(=O)O[C@H](/C(C)=C/[C@@H]3CC[C@H](S(C)(=O)=O)[C@H](OC)C3)[C@H](C)[C@@H](O)CC1=O)[C@H](C)C[C@@H]2OC` [Example 129], the half-maximal inhibitory concentration (IC50) in experiment [1] (Homo sapiens, Lymphocyte) stood at 1.15 nM.

For the compound `CC[C@@H]1/C=C(\C)C[C@H](C)C[C@H](OC)[C@H]2O[C@@](O)(C(=O)C(=O)N3CCCC[C@H]3C(=O)O[C@H](/C(C)=C/[C@@H]3CC[C@H](SCSC)[C@H](OC)C3)[C@H](C)[C@@H](O)CC1=O)[C@H](C)C[C@@H]2OC` [Example 130], the IC50 in experiment [1] (Homo sapiens, Lymphocyte) is 0.58 nM.

In the case of `CC[C@@H]1/C=C(\C)C[C@H](C)C[C@H](OC)[C@H]2O[C@@](O)(C(=O)C(=O)N3CCCC[C@H]3C(=O)O[C@H](/C(C)=C/[C@@H]3CC[C@H](SCOC)[C@H](OC)C3)[C@H](C)[C@@H](O)CC1=O)[C@H](C)C[C@@H]2OC` [Example 131], in experiment [1] (Homo sapiens, Lymphocyte), it took 5.2 nM to reach half-maximal inhibition (IC50).

For the compound `CC[C@@H]1/C=C(\C)C[C@H](C)C[C@H](OC)[C@H]2O[C@@](O)(C(=O)C(=O)N3CCCC[C@H]3C(=O)O[C@H](/C(C)=C/[C@@H]3CC[C@H](Sc4ccccc4)[C@H](OC)C3)[C@H](C)[C@@H](O)CC1=O)[C@H](C)C[C@@H]2OC` [Example 132], the IC50 in experiment [1] (Homo sapiens, Lymphocyte) was 3.4 nM.
